The record followed here is ChEMBL document CHEMBL5465560, “Selectivity Literature for EUbOPEN Chemogenomic Library” (2024).

Data set [1] has as its target MAO-B (MAOB) (Homo sapiens, UniProt P27338). As to the kind of experiment: Selectivity interaction (Panel of kinases, GPCRs, ion channels and transporters (enzymatic assay)) EUB0000266bCl MAOB.
Data set [2] concerns the target T1, Serine/threonine-protein kinase BRSK1 (Homo sapiens) (UniProt Q8TDC3).
T1 sequence (whole entry): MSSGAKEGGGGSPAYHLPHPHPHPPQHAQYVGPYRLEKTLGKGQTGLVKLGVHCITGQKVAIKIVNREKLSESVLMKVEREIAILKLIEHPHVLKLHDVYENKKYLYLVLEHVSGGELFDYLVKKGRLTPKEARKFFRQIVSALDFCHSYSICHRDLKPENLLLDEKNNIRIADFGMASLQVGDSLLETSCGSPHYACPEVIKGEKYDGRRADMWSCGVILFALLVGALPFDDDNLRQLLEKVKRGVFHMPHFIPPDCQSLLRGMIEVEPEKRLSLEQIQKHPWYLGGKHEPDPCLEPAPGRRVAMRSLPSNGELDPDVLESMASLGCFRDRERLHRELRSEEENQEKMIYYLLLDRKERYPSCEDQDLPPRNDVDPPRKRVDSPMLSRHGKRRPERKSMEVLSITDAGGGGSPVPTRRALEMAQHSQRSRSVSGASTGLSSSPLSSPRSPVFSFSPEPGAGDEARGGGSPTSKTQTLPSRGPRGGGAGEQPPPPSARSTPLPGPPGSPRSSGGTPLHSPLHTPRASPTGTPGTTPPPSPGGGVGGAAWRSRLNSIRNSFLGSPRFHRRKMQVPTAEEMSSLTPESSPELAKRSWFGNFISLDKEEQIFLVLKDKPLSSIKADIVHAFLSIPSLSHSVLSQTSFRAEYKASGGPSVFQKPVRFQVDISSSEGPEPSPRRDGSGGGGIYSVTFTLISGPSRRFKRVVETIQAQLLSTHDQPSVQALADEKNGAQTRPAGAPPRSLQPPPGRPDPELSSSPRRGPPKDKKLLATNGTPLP
Put plainly: Selectivity interaction (Ambit KINOMEscan and KiNATiv profiling in Jurkat cells) EUB0000090b BRSK1. It is filed as cell-based. Particulars: at 1 µM.

In data set [3] the target is Homeodomain-interacting protein kinase 1 (Homo sapiens, UniProt Q86Z02). Put plainly: Selectivity interaction (Ambit KINOMEscan and KiNATiv profiling in Jurkat cells) EUB0000090b HIPK1. The format is cell-based. Conditions: at 1 µM.
The target of data set [4] is Cyclin-dependent kinase 17 (Homo sapiens) (UniProt Q00537). As to the kind of experiment: Selectivity interaction (Ambit KINOMEscan and KiNATiv profiling in Jurkat cells) EUB0000090b CDK17. It is filed as cell-based. Particulars: at 1 µM.
Sequence of Cyclin-dependent kinase 17 (Homo sapiens) (Q00537 whole entry, looked up, canonical isoform): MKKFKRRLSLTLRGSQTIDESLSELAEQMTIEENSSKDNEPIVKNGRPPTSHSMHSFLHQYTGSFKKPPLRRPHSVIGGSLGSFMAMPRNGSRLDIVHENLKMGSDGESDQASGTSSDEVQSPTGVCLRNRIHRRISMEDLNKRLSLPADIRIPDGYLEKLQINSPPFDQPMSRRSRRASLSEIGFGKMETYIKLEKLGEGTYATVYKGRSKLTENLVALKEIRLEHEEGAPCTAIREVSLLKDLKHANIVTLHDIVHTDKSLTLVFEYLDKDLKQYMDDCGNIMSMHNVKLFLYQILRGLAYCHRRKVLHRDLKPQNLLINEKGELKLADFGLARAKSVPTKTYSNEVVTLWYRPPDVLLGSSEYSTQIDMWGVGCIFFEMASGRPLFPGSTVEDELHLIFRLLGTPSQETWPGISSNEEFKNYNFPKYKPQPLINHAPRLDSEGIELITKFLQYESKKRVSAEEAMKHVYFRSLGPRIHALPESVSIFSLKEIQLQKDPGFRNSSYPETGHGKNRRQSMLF
Data set [5] concerns the target Casein kinase I isoform epsilon (Homo sapiens, UniProt P49674). As to the kind of experiment: Selectivity interaction (KinomeScan (DiscoverX)) EUB0001079a CSNK1E. Conditions: at 1 µM.
Data set [6] concerns the target Cyclin-dependent kinase-like 1 (Homo sapiens) (UniProt Q00532). Put plainly: Selectivity interaction (KinomeScan (DiscoverX)) EUB0001049a CDKL1. Conditions: at 1 µM.
The target of data set [7] is Serine/threonine-protein kinase PLK3 (Homo sapiens, UniProt Q9H4B4). As to the kind of experiment: Selectivity interaction (KinomeScan (DiscoverX)) EUB0000695a PLK3. Particulars: at 100 nM.
Sequence of Serine/threonine-protein kinase PLK3 (Q9H4B4 whole entry, looked up): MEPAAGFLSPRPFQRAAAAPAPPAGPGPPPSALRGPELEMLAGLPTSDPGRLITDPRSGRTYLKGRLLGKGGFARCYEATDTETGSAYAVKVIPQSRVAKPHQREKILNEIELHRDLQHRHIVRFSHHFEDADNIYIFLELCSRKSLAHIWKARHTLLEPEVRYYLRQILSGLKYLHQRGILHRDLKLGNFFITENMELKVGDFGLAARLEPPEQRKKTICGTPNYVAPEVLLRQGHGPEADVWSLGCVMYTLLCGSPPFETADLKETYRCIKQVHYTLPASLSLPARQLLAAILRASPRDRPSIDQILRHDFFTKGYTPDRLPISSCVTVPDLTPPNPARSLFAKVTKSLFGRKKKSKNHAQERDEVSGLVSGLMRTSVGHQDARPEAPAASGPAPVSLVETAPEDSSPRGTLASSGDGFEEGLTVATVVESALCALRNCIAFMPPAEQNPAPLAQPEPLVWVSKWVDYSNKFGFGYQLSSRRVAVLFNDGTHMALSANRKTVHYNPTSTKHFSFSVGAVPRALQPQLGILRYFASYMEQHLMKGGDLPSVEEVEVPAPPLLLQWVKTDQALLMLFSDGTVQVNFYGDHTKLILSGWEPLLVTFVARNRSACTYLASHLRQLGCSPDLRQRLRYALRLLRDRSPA
In data set [8] the target is Serine/threonine-protein kinase PAK 2 (Homo sapiens) (UniProt Q13177). Put plainly: Selectivity interaction (Kinase screening (Nanosyn)) EUB0000604a PAK2.
Sequence of Serine/threonine-protein kinase PAK 2 (Homo sapiens) (Q13177 whole entry): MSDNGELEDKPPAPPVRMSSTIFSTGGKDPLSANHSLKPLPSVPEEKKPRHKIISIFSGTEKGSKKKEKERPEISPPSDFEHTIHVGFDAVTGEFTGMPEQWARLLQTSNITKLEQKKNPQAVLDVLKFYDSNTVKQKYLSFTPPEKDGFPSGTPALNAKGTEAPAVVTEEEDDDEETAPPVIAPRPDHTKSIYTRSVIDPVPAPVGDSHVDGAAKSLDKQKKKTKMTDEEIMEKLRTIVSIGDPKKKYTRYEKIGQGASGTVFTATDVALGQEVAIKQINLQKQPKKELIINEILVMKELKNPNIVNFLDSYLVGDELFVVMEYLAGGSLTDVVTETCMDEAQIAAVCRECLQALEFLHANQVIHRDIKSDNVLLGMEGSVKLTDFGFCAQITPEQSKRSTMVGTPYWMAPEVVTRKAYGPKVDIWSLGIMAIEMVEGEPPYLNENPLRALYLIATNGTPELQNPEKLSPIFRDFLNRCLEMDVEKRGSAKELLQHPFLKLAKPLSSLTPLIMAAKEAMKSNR
The target in data set [9] is T2, Serine/threonine-protein kinase Chk1 (Homo sapiens) (UniProt O14757).
T2 sequence (whole entry): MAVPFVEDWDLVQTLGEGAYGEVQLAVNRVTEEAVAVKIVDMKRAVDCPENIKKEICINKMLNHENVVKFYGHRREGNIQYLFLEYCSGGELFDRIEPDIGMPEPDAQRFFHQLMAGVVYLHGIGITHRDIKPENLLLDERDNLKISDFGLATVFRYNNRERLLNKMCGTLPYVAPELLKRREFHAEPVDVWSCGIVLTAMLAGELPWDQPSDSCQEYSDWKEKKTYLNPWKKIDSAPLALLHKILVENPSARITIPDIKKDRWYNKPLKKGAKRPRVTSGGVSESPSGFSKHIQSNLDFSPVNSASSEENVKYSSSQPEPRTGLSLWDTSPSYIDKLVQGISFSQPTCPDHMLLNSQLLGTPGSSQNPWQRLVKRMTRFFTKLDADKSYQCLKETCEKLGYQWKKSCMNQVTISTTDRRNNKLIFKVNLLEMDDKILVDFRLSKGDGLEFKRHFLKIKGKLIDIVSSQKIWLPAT
Put plainly: Selectivity interaction (Kinase screening (Upstate/Millipore)) EUB0000604a CHEK1.

The target of data set [10] is Cyclin-dependent kinase-like 3 (Homo sapiens) (UniProt Q8IVW4). Put plainly: Selectivity interaction (KinomeScan (DiscoverX)) EUB0000666a CDKL3. Conditions: at 10 µM.
Sequence of Cyclin-dependent kinase-like 3 (Homo sapiens) (Q8IVW4 whole entry, looked up): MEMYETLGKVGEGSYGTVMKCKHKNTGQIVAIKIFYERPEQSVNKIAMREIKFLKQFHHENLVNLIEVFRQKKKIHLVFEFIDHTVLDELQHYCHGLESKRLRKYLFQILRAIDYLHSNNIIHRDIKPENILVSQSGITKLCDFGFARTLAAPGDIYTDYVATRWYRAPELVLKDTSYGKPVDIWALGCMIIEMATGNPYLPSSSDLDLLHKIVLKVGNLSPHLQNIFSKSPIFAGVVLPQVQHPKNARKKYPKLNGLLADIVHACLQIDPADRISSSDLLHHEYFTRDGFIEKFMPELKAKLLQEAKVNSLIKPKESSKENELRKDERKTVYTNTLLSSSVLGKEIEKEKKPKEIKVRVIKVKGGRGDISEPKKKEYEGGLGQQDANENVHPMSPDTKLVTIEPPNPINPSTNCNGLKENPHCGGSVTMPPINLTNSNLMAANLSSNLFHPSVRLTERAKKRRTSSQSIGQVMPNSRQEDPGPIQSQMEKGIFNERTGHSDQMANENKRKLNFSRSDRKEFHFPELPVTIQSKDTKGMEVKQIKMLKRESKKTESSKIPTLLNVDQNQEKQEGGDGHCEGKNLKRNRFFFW
Data set [11] has as its target Protein kinase C theta type (Homo sapiens, UniProt Q04759). Put plainly: Selectivity interaction (KinomeScan (DiscoverX)) EUB0000311b PRKCQ. Particulars: at 1 µM.
The target of data set [12] is Fibroblast growth factor receptor 4 (Homo sapiens, UniProt P22455). Put plainly: Selectivity interaction (KinomeScan (DiscoverX)) EUB0001619a FGFR4. Particulars: at 1 µM.
In data set [13] the target is SRSF protein kinase 1 (Homo sapiens, UniProt Q96SB4). As to the kind of experiment: Selectivity interaction (Kinase panel (literature)) EUB0001199aCl SRPK1. Conditions: at 1 µM.
Sequence of SRSF protein kinase 1 (Q96SB4 whole entry): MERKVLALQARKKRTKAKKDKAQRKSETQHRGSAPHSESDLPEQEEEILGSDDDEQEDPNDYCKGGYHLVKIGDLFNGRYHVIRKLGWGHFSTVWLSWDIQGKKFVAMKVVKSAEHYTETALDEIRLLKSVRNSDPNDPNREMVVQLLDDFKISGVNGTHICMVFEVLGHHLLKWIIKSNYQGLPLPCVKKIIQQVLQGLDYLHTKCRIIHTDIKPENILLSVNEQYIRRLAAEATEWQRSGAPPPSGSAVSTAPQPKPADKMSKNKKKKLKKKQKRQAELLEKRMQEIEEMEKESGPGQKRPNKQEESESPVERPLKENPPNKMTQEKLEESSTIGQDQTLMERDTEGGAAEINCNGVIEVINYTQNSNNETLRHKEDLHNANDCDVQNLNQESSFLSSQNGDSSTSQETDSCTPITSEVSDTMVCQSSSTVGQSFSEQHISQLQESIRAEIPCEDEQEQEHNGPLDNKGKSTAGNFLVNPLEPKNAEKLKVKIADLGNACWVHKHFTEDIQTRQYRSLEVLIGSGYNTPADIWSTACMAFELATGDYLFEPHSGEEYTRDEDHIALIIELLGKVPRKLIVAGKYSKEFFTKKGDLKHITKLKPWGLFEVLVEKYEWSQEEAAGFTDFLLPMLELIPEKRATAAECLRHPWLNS
The target in data set [14] is Interferon-induced, double-stranded RNA-activated protein kinase (Homo sapiens) (UniProt P19525). As to the kind of experiment: Selectivity interaction (Kinase panel (KiNativ target engagement assay in Jurkat cells)) EUB0001635a EIF2AK2. Conditions: Selectivity number of off-targets 0.0, Selectivity number of targets 233.0, Source Knowledge https://www.sciencedirect.com/science/article/pii/S2451945619300674?via%3Dihub, at 1 µM. It is filed as cell-based.
Sequence of Interferon-induced, double-stranded RNA-activated protein kinase (Homo sapiens) (P19525 whole entry): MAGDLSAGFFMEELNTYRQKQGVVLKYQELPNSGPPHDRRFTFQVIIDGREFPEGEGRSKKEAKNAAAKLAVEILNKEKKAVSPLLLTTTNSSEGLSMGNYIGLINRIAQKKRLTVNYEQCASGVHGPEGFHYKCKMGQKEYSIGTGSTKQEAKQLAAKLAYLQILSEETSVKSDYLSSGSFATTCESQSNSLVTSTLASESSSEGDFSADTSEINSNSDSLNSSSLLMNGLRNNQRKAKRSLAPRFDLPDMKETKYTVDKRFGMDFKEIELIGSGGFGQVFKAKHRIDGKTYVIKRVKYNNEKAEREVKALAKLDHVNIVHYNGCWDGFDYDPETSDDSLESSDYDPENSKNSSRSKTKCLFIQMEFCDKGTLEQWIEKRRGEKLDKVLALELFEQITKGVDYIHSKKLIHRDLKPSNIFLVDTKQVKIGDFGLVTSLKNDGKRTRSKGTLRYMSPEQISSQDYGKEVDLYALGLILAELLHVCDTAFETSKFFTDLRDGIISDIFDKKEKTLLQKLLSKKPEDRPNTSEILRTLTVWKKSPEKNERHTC

Sequence of Casein kinase I isoform epsilon (P49674 whole entry, looked up, canonical isoform): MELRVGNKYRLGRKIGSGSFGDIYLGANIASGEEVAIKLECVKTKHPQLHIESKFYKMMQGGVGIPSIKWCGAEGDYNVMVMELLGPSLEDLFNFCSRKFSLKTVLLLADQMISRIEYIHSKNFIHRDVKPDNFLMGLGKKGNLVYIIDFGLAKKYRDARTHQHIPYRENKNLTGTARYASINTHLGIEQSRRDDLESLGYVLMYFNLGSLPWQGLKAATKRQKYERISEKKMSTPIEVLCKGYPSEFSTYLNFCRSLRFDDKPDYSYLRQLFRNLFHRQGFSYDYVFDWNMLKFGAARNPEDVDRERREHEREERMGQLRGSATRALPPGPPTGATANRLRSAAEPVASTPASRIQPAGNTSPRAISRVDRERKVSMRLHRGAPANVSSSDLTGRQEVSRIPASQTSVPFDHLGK
Sequence of Cyclin-dependent kinase-like 1 (Homo sapiens) (Q00532 whole entry): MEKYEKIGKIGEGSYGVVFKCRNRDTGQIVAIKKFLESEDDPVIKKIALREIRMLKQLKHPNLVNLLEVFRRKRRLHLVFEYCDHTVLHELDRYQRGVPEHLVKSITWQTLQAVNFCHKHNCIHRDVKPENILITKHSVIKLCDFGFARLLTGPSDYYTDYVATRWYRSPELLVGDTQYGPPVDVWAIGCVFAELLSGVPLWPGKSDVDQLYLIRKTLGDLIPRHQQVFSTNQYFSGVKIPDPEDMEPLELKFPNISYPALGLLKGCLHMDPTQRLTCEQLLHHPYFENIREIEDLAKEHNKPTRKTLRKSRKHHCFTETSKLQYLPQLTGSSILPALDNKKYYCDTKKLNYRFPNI
Sequence of Protein kinase C theta type (Q04759 whole entry, looked up): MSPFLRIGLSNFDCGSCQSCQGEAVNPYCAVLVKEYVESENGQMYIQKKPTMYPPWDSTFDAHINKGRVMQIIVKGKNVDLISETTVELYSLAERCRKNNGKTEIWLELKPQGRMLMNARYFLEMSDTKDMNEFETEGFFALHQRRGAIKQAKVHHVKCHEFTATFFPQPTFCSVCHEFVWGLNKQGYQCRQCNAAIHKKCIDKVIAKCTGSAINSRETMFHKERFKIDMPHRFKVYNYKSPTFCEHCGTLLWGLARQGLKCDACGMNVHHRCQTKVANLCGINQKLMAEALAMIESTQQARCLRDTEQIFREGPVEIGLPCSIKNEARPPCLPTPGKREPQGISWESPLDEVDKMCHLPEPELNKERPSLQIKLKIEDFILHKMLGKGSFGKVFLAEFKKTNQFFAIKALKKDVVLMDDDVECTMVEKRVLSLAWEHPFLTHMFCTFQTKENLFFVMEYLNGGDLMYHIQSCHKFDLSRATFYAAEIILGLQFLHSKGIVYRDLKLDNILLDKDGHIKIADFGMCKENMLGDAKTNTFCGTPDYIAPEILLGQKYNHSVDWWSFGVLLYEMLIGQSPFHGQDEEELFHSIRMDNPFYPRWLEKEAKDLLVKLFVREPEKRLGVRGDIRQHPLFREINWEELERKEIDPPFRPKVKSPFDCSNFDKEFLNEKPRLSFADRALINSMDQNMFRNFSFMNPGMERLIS

`CCn1c(-c2nc3cc(C(=O)N4CCCC(N)C4)ccc3n2C)cc2ccccc21` (centres undefined) had an XC50 in data set [1] of 20 µM.

Consider `CN(C)C/C=C/C(=O)Nc1ccc(C(=O)N2CCCC(Nc3ncc(Cl)c(-c4c[nH]c5ccccc45)n3)C2)cc1` (centres undefined), for which the % of control in [2] was found to be 84%; in data set [3], 80%; in data set [4] it was 83%.

In data set [5], `Nc1cnc(N2CCc3cc(S(=O)(=O)Nc4c(F)cc(Cl)cc4F)cc(N4CCCC4=O)c32)nc1` [TP-020n] yielded a % of control of 89%.

Regarding `COc1cc(Nc2nc(C)cc(-c3cnn4nc(OC)ccc34)n2)cc(C(F)(F)F)c1`, the % of control in [6] came out at 73%.

In data set [7], `Cc1cc(F)c(C(=O)Nc2cccc(-c3nncn3C(C)C)n2)cc1-n1cnc(C2CC2)c1` came in with a % of control of 100%.

Regarding `Cc1cnc(Nc2ccc(F)cc2Cl)nc1-c1c[nH]c(C(=O)N[C@H](CO)c2cccc(Cl)c2)c1`, the % of inhibition in [8] was determined as 0%; in data set [9], 40%.

As to `O=C(NOC[C@H](O)CO)c1ccc(F)c(F)c1Nc1ccc(I)cc1F`, the % of control in [10] was determined as 98%.

Take `CCc1ccccc1C(=O)Nc1n[nH]c2c(C)c(F)c(C3C(C#N)=C(C)N(C)C(C)=C3C#N)cc12` [BAY-3827]: in data set [11], the % of control was 15%.

In data set [12], `N#Cc1cccc(-c2c[nH]c3ncnc(N4CCOCC4)c23)c1` yielded a % of control of 74%.

On to `CN1Cc2nccc(-c3cn(C)nc3-c3ccc(F)cc3)c2C1=O`, for which the % of inhibition in data set [13] worked out at 8%.

For `C=CC(=O)Nc1ccc(C(=O)Nc2[nH]nc3c2CN(C(=O)N[C@H](CN(C)C)c2ccccc2)C3(C)C)cc1`, the % of engagement in data set [14] is -5.3%.
